From ChEMBL document CHEMBL3885881, “DrugMatrix”

Species on record: Rattus norvegicus
Experiment: DrugMatrix - Regimen: Daily Repeat
Format: toxicity, organism-based, Sprague-Dawley
Set-up: regimen Daily Repeat, gender Male, age 6-8 weeks
Details: in vivo, sc, route subcutaneous, […]; for ABSOLUTE BASOPHIL / ABSOLUTE EOSINOPHIL / ABSOLUTE LYMPHOCYTE / ABSOLUTE MONOCYTE / ABSOLUTE SEGMENTED NEUTROPHIL / BASOPHIL / EOSINOPHIL / ERYTHROCYTE COUNT / HEMATOCRIT / HEMOGLOBIN / LEUKOCYTE COUNT / LYMPHOCYTE / MEAN CORPUSCULAR HEMOGLOBIN / MEAN CORPUSCULAR HEMOGLOBIN CONCENTRATION / MEAN CORPUSCULAR VOLUME / MONOCYTE / NEUTROPHIL / NUCLEATED RED BLOOD CELLS / PLATELET COUNT: tissue Blood; for ALANINE AMINOTRANSFERASE / ALBUMIN / ALKALINE PHOSPHATASE / ASPARTATE AMINOTRANSFERASE / BLOOD UREA NITROGEN / CARBON DIOXIDE / CHLORIDE / CHOLESTEROL / CREATINE PHOSPHOKINASE / CREATININE / GLUCOSE / LACTATE DEHYDROGENASE / LIPASE / PHOSPHORUS / POTASSIUM / SODIUM / TOTAL BILIRUBIN / TOTAL PROTEIN / URIC ACID: tissue Plasma
[1] = 56 mg/kg, 120 h, dose level M1, time 5 day
[2] = 72 h, dose 5.6 mg/Kg, dose level Low, time 3 day
[3] = 120 h, dose 5.6 mg/Kg, dose level Low, time 5 day

## O=C(Nc1ccc(Br)cc1)c1cc(Br)cc(Br)c1O [TRIBROMSALAN]
[1]
  ABSOLUTE BASOPHIL: 0 CELLS/uL
  ABSOLUTE EOSINOPHIL: 183 CELLS/uL
  ABSOLUTE LYMPHOCYTE: 10057 CELLS/uL
  ABSOLUTE MONOCYTE: 145 CELLS/uL
  ABSOLUTE SEGMENTED NEUTROPHIL: 1315 CELLS/uL
  BASOPHIL: 0%
  EOSINOPHIL: 1%
  ERYTHROCYTE COUNT: 5.63 x10E6/uL
  HEMATOCRIT: 34.6%
  HEMOGLOBIN: 12.83 G/DL
  LEUKOCYTE COUNT: 11.7 x10E3/uL
  LYMPHOCYTE: 86.33%
  MEAN CORPUSCULAR HEMOGLOBIN: 22.8 pg
  MEAN CORPUSCULAR HEMOGLOBIN CONCENTRATION: 37.1 G/DL
  MEAN CORPUSCULAR VOLUME: 61.47 fL
  MONOCYTE: 1.33%
  NEUTROPHIL: 11.33%
  NUCLEATED RED BLOOD CELLS: 0 /100WBC
  PLATELET COUNT: 1090 x10E3/uL
  ALANINE AMINOTRANSFERASE: 51 u/L
  ALBUMIN: 3.77 G/DL
  ALKALINE PHOSPHATASE: 376.33 u/L
  ASPARTATE AMINOTRANSFERASE: 90 u/L
  BLOOD UREA NITROGEN: 16 mg/dL
  CARBON DIOXIDE: 24 mmol/L
  CHLORIDE: 99 MEQ/L
  CHOLESTEROL: 81.33 mg/dL
  CREATINE PHOSPHOKINASE: 578.33 u/L
  CREATININE: 0.19 mg/dL
  GLUCOSE: 142 mg/dL
  LACTATE DEHYDROGENASE: 171.33 u/L
  LIPASE: 7.33 u/L
  PHOSPHORUS: 11.13 mg/dL
  POTASSIUM: 6.14 MEQ/L
  SODIUM: 146.5 MEQ/L
  TOTAL BILIRUBIN: 0.23 mg/dL
  TOTAL PROTEIN: 6.23 G/DL
  URIC ACID: 1.13 mg/dL
[2]
  ABSOLUTE BASOPHIL: 0 CELLS/uL
  ABSOLUTE EOSINOPHIL: 0 CELLS/uL
  ABSOLUTE LYMPHOCYTE: 7670 CELLS/uL
  ABSOLUTE MONOCYTE: 0 CELLS/uL
  ABSOLUTE SEGMENTED NEUTROPHIL: 730 CELLS/uL
  BASOPHIL: 0%
  EOSINOPHIL: 0%
  ERYTHROCYTE COUNT: 4.92 x10E6/uL
  HEMATOCRIT: 32.37%
  HEMOGLOBIN: 12.33 G/DL
  LEUKOCYTE COUNT: 8.4 x10E3/uL
  LYMPHOCYTE: 91.67%
  MEAN CORPUSCULAR HEMOGLOBIN: 25.1 pg
  MEAN CORPUSCULAR HEMOGLOBIN CONCENTRATION: 38.13 G/DL
  MEAN CORPUSCULAR VOLUME: 65.77 fL
  MONOCYTE: 0%
  NEUTROPHIL: 8.33%
  NUCLEATED RED BLOOD CELLS: 0 /100WBC
  PLATELET COUNT: 800.67 x10E3/uL
  ALANINE AMINOTRANSFERASE: 47.33 u/L
  ALBUMIN: 4.3 G/DL
  ALKALINE PHOSPHATASE: 403.67 u/L
  ASPARTATE AMINOTRANSFERASE: 74.33 u/L
  BLOOD UREA NITROGEN: 15.33 mg/dL
  CARBON DIOXIDE: 24.33 mmol/L
  CHLORIDE: 101.67 MEQ/L
  CHOLESTEROL: 72.33 mg/dL
  CREATINE PHOSPHOKINASE: 270.67 u/L
  CREATININE: 0.18 mg/dL
  GLUCOSE: 163 mg/dL
  LACTATE DEHYDROGENASE: 143 u/L
  LIPASE: 8.33 u/L
  PHOSPHORUS: 13.13 mg/dL
  POTASSIUM: 6.25 MEQ/L
  SODIUM: 144.7 MEQ/L
  TOTAL BILIRUBIN: 0.3 mg/dL
  TOTAL PROTEIN: 5.97 G/DL
  URIC ACID: 2.13 mg/dL
[3]
  ABSOLUTE BASOPHIL: 0 CELLS/uL
  ABSOLUTE EOSINOPHIL: 126 CELLS/uL
  ABSOLUTE LYMPHOCYTE: 12819 CELLS/uL
  ABSOLUTE MONOCYTE: 78 CELLS/uL
  ABSOLUTE SEGMENTED NEUTROPHIL: 1743.67 CELLS/uL
  BASOPHIL: 0%
  EOSINOPHIL: 0.67%
  ERYTHROCYTE COUNT: 5.88 x10E6/uL
  HEMATOCRIT: 36.87%
  HEMOGLOBIN: 13.53 G/DL
  LEUKOCYTE COUNT: 14.77 x10E3/uL
  LYMPHOCYTE: 87%
  MEAN CORPUSCULAR HEMOGLOBIN: 23.07 pg
  MEAN CORPUSCULAR HEMOGLOBIN CONCENTRATION: 36.77 G/DL
  MEAN CORPUSCULAR VOLUME: 62.77 fL
  MONOCYTE: 0.67%
  NEUTROPHIL: 11.67%
  NUCLEATED RED BLOOD CELLS: 0 /100WBC
  PLATELET COUNT: 1236 x10E3/uL
  ALANINE AMINOTRANSFERASE: 46.33 u/L
  ALBUMIN: 4 G/DL
  ALKALINE PHOSPHATASE: 354.67 u/L
  ASPARTATE AMINOTRANSFERASE: 82.33 u/L
  BLOOD UREA NITROGEN: 17.67 mg/dL
  CARBON DIOXIDE: 27.33 mmol/L
  CHLORIDE: 101.67 MEQ/L
  CHOLESTEROL: 65.33 mg/dL
  CREATINE PHOSPHOKINASE: 261.33 u/L
  CREATININE: 0.2 mg/dL
  GLUCOSE: 152.67 mg/dL
  LACTATE DEHYDROGENASE: 145.67 u/L
  LIPASE: 8 u/L
  PHOSPHORUS: 11.87 mg/dL
  POTASSIUM: 6.3 MEQ/L
  SODIUM: 145.97 MEQ/L
  TOTAL BILIRUBIN: 0.13 mg/dL
  TOTAL PROTEIN: 5.97 G/DL
  URIC ACID: 1.5 mg/dL
